In series [1] the target is Cyclin-dependent kinase 2 (Homo sapiens, UniProt P24941). As to the kind of experiment: Inhibition of CDK2/cyclin E expressed in Sf9 cells-baculovirus system assessed as retinoblastoma susceptibility gene product phosphorylation.
Series [2] addresses Cyclin-dependent kinase 4/cyclin D1 (Homo sapiens, UniProt P11802). The series is described as follows: Inhibition of CDK4/cyclin D1 expressed in Sf9 cells-baculovirus system assessed as retinoblastoma susceptibility gene product phosphorylation.
Series [3] addresses Cyclin-dependent kinase 1/cyclin B1 (Homo sapiens, UniProt P06493). As to the kind of experiment: Inhibition of CDK1/Cyclin B1 expressed in Sf9 cells-baculovirus system assessed as retinoblastoma susceptibility gene product phosphorylation.
Series [4] is described as follows: Aqueous solubility at pH 7.4. Format: physicochemical.
The subject of another series is HCT-116. As to the kind of experiment: Antiproliferative activity against human HCT116 cells by SRB method. Format: functional, cell-based. Background: In SRB staining, fixed cells bind dye roughly in proportion to their protein.
For the next series, the system named is MCF7. The series is described as follows: Antiproliferative activity against human MCF7 cells by SRB method. Format: functional, cell-based.

Structures are written as SMILES. ≈ marks a conversion by molar mass, not a printed value.

Chain of Cyclin-dependent kinase 4/cyclin D1 (P11802 whole entry): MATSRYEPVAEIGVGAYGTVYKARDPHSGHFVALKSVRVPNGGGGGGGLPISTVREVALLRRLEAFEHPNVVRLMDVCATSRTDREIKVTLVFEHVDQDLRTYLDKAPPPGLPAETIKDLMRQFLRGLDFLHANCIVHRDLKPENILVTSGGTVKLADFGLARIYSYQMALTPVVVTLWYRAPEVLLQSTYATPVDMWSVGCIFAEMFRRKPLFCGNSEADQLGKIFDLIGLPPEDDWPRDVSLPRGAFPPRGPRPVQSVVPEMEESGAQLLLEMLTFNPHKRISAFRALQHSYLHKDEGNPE
Chain of Cyclin-dependent kinase 4/cyclin D1 (P24385 whole entry, further chain): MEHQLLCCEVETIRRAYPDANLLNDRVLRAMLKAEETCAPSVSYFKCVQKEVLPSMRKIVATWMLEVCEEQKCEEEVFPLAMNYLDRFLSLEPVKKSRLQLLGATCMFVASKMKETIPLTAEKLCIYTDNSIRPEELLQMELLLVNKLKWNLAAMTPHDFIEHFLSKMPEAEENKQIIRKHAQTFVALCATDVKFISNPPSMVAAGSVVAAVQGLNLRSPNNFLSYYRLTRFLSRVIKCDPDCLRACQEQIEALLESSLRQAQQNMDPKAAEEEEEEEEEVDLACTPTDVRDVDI
Chain of Cyclin-dependent kinase 1/cyclin B1 (P06493 whole entry): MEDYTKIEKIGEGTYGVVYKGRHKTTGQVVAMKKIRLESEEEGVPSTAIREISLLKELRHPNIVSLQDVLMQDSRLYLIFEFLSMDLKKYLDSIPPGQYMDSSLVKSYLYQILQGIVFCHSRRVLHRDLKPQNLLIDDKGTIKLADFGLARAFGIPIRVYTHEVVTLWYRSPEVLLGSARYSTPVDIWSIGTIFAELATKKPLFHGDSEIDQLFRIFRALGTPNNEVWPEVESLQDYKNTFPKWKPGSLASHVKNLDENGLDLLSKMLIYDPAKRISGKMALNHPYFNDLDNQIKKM
Chain of Cyclin-dependent kinase 1/cyclin B1 (P14635 whole entry, further chain): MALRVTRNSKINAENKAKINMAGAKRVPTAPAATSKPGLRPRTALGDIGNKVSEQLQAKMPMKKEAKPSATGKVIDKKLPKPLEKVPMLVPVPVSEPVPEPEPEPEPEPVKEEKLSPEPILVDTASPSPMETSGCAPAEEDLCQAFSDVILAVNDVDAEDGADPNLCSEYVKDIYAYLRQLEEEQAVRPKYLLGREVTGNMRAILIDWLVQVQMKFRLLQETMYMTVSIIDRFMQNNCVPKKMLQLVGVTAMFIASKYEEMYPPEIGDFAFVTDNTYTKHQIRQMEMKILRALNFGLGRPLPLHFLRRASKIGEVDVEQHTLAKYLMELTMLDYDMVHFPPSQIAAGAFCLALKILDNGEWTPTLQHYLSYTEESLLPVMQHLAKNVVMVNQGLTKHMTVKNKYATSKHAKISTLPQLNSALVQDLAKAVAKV

By IC50 is commonly meant the concentration that inhibits the measured activity by half. For `O=C1NC(=O)c2ccc(N3CCCCC3)cc2/C1=C/Nc1ccc(CN2CCCCC2)cc1`, the IC50 in series [1] was over 50 µM; in series [2], 1 µM; in series [3], over 50 µM.

As for `CC(=O)Nc1ccc2c(c1)/C(=C/Nc1ccc(CN3CCCCC3)cc1)C(=O)NC2=O`, the IC50 was 3.5 µM in series [2] and over 50 µM in series [3].

`O=C1NC(=O)c2ccc(-c3cccnc3)cc2/C1=C/Nc1ccc(CN2CCCCC2)cc1`: the values for the IC50 in series [1], in series [2] and in series [3] were over 50 µM, 0.05 µM and over 50 µM, respectively.

Regarding `O=C1NC(=O)c2ccc(-c3ccccc3)cc2/C1=C/Nc1ccc(CN2CCCCC2)cc1`, the 50% inhibitory concentration (IC50) in series [1] is over 50 µM; in series [2], 0.32 µM; in series [3], over 50 µM.

Regarding `COc1cccc(-c2ccc3c(c2)/C(=C/Nc2ccc(CN4CCCCC4)cc2)C(=O)NC3=O)c1`, the IC50 in series [3] is over 50 µM.

Consider `O=C1NC(=O)c2ccc(-c3ccc(Oc4ccccc4)cc3)cc2/C1=C\Nc1ccc(CN2CCCCC2)cc1`, for which the 50% inhibitory concentration (IC50) in series [1], in series [2] and in series [3] was over 50 µM throughout.

`COc1ccc(-c2ccc3c(c2)/C(=C/Nc2ccc(CN4CCCCC4)cc2)C(=O)NC3=O)cc1`: the figures for the IC50 in series [1], in series [2] and in series [3] were over 50 µM, 0.13 µM and over 50 µM, respectively.

As to `O=C1NC(=O)c2ccc([N+](=O)[O-])cc2/C1=C/Nc1ccc(CN2CCCCC2)cc1`, the results for the IC50 in series [1], in series [2] and in series [3] were over 50 µM, 15.1 µM and over 50 µM, respectively.

Broadly, the solubility is the dissolved amount per volume that the medium holds. Take `C[C@@H]1CN(c2ccc(N/C=C3\C(=O)NC(=O)c4ccc(I)cc43)cc2)[C@@H](C)CN1C`: the solubility in series [4] is 4 µg/mL (≈ 7.75 µM). Besides, the IC50 in the series with HCT-116 was 5 µM; in series [1] it was over 50 µM; in the series with MCF7 it was 1 µM; in series [2] it was 3 µM; in series [3], over 50 µM.

As to `CN1CCN(c2ccc(N/C=C3\C(=O)NC(=O)c4ccc(-c5ccoc5)cc43)cc2F)CC1`, the IC50 in the series on HCT-116 was 2.2 µM; in the series with MCF7, 0.9 µM; in series [3] it was over 50 µM.

In turn, `CC1CN(c2ccc(N/C=C3\C(=O)NC(=O)c4ccc(I)cc43)cc2)CCN1C` (centres undefined) showed a solubility in series [4] of 5 µg/mL (≈ 9.95 µM). Besides, the half-inhibitory concentration (IC50) in series [1] and in series [3] was over 50 µM each time.

On to `O=C1NC(=O)c2ccccc2/C1=C/Nc1ccc(CN2CCOCC2)cc1`, for which the concentration for half-maximal inhibition (IC50) in series [1] was 21 µM; in series [2], 10 µM; in series [3], over 27 µM.

For `CN1CCN(c2ccc(N/C=C3\C(=O)NC(=O)c4ccc(C(=O)N(C)C)cc43)cc2)CC1`, the IC50 in series [3] was over 50 µM.

Turning to `COc1ccc2c(c1)/C(=C/Nc1ccc(CN3CCCCC3)cc1)C(=O)NC2=O`, the results for the concentration for half-maximal inhibition (IC50) in series [1], in series [2] and in series [3] were over 50 µM, 2 µM and over 50 µM, respectively.

Turning to `O=C1NC(=O)c2ccc(-c3ccc(Cl)cc3)cc2/C1=C/Nc1ccc(CN2CCCCC2)cc1`, the IC50 in series [1] and in series [3] was over 50 µM throughout.

As to `CN1CCN(c2ccc(N/C=C3\C(=O)NC(=O)c4ccc(N5CCCCC5)cc43)cc2)CC1`, the IC50 in series [1] was over 50 µM; in series [2], 1.62 µM; in series [3], over 50 µM.

Take `O=C1NC(=O)c2ccc(Nc3ccccc3)cc2/C1=C/Nc1ccc(CN2CCCCC2)cc1`: the half-maximal inhibitory concentration (IC50) in series [3] is over 50 µM.

For the compound `O=C1NC(=O)c2ccccc2/C1=C/Nc1ccc(N2CCOCC2)cc1`, the IC50 in series [2] and in series [3] was over 29 µM in each case.

With `C[C@@H]1CN(c2ccc(N/C=C3\C(=O)NC(=O)c4ccc(I)cc43)cc2)C[C@H](C)N1`, the solubility in series [4] was found to be 12 µg/mL (≈ 23.9 µM). For the same compound, the half-inhibitory concentration (IC50) was over 50 µM in series [1], 1 µM in series [2] and over 50 µM in series [3].

Consider `O=C1NC(=O)c2ccc(-c3ccc(O)cc3)cc2/C1=C/Nc1ccc(CN2CCCCC2)cc1`, for which the IC50 in series [1] and in series [3] was over 50 µM each time.

As to `CN1CCN(c2ccc(N/C=C3\C(=O)NC(=O)c4ccc(-c5ccoc5)cc43)nc2)CC1`, in series [3], the IC50 was over 50 µM.

Turning to `CN1CCN(c2ccc(N/C=C3\C(=O)NC(=O)c4ccccc43)cc2)CC1`, the results for the IC50 in series [1], in series [2] and in series [3] were over 28 µM, 4.1 µM and over 28 µM, respectively.

As to `O=C1NC(=O)c2ccc(-c3cccc(O)c3)cc2/C1=C/Nc1ccc(CN2CCCCC2)cc1`, the IC50 in the series with HCT-116 was 1.3 µM; in series [1], over 50 µM; in the series with MCF7, 2 µM; in series [3], over 50 µM.

Turning to `O=C1NC(=O)c2ccc(Cl)cc2/C1=C/Nc1ccc(CN2CCCCC2)cc1`, the IC50 in series [3] was over 50 µM.

As for `O=C1NC(=O)c2ccc(-c3ccoc3)cc2/C1=C/Nc1ccc(CN2CCCCC2)cc1`, the IC50 in series [1] and in series [3] was over 50 µM in each case.

Turning to `CN1CCN(c2ncc(N/C=C3\C(=O)NC(=O)c4ccc(-c5ccoc5)cc43)cn2)CC1`, the half-maximal inhibitory concentration (IC50) in the series on HCT-116 worked out at 1.1 µM; in the series on MCF7, 3.2 µM.

On to `CN1CCN(c2ccc(N/C=C3\C(=O)NC(=O)c4ccc(-c5ccsc5)cc43)cc2)CC1`, for which the IC50 in the series with HCT-116 is 1.4 µM; in the series on MCF7 it was 2.3 µM; in series [2] it was 0.1 µM; in series [3] it was over 50 µM.

`CN1CCN(c2ccc(N/C=C3\C(=O)NC(=O)c4ccc(I)cc43)cc2)CC1` displayed a solubility in series [4] of 1 µg/mL (≈ 2.05 µM). In addition, in series [3], the IC50 is over 50 µM.

As to `CC(=O)Nc1ccc2c(c1)/C(=C/Nc1ccc(N3CCN(C)CC3)cc1)C(=O)NC2=O`, the values for the IC50 in series [1], in series [2] and in series [3] were over 50 µM, 11 µM and 13.8 µM, respectively.

As for `O=C1NC(=O)c2ccc(N3CCOCC3)cc2/C1=C/Nc1ccc(CN2CCCCC2)cc1`, the IC50 in series [1] and in series [3] was over 50 µM in each case.

Regarding `CN1CCN(c2ccc(N/C=C3\C(=O)NC(=O)c4cc(Br)ccc43)cc2)CC1`, the IC50 is 12.1 µM in series [2] and over 50 µM in series [3].

For `CN1CCN(c2ccc(N/C=C3\C(=O)NC(=O)c4ccc(-c5ccoc5)cc43)cn2)CC1`, the 50% inhibitory concentration (IC50) in series [1] is over 50 µM; in series [2], 0.11 µM; in series [3], over 50 µM.

In turn, `C[C@@H]1CN(c2ccc(N/C=C3\C(=O)NC(=O)c4ccc(I)cc43)cc2)C[C@H](C)N1C` registered a solubility in series [4] of 4 µg/mL (≈ 7.75 µM). In addition, the IC50 in series [3] is over 50 µM.

Consider `O=C1NC(=O)c2ccc(-c3ccsc3)cc2/C1=C/Nc1ccc(CN2CCCCC2)cc1`, for which the IC50 is 1 µM with HCT-116, 3.4 µM in the series on MCF7, 0.13 µM in series [2] and over 50 µM in series [3].

As for `CN1CCN(c2ccc(N/C=C3\C(=O)NC(=O)c4ccc(-c5ccoc5)cc43)cc2)CC1`, the 50% inhibitory concentration (IC50) was 1.2 µM in the series with HCT-116, 1.1 µM in the series on MCF7 and over 50 µM in series [3].

Turning to `CN(C)C(=O)c1ccc2c(c1)/C(=C/Nc1ccc(CN3CCCCC3)cc1)C(=O)NC2=O`, the IC50 in series [1] is 39.8 µM; in series [3] it was over 50 µM.

As for `O=C1NC(=O)c2ccc(-c3ccc(F)cc3)cc2/C1=C/Nc1ccc(CN2CCCCC2)cc1`, the concentration for half-maximal inhibition (IC50) in the series on HCT-116 was 1 µM; in series [1] it was over 50 µM; in the series on MCF7 it was 0.55 µM; in series [3] it was over 50 µM.

Turning to `CN1CCN(c2ccc(N/C=C3\C(=O)NC(=O)c4ccc(-c5ccco5)cc43)cc2)CC1`, the 50% inhibitory concentration (IC50) in series [1] is over 50 µM; in series [2], 0.33 µM; in series [3], over 50 µM.

For the compound `CN1CCN(c2ccc(N/C=C3\C(=O)NC(=O)c4ccc(-n5cccc5)cc43)cc2)CC1`, the half-maximal inhibitory concentration (IC50) with HCT-116 was 1.5 µM; in series [1], over 50 µM; in the series with MCF7, 2.3 µM; in series [2] it was 0.14 µM; in series [3] it was over 50 µM.

On to `CN1CCN(c2ccc(N/C=C3\C(=O)NC(=O)c4ccc(/C=C/c5ccccc5)cc43)cc2)CC1`, for which the IC50 in series [2] is 14.3 µM.

On to `O=C1NC(=O)c2ccc(I)cc2/C1=C/Nc1ccc(CN2CCCCC2)cc1`, for which the IC50 in the series with HCT-116 was 2.7 µM; in the series on MCF7, 1 µM; in series [3], over 50 µM.

In the case of `CN1CCN(c2cnc(N/C=C3\C(=O)NC(=O)c4ccc(-c5ccoc5)cc43)cn2)CC1`, the concentration for half-maximal inhibition (IC50) with HCT-116 was determined as 0.95 µM; in the series on MCF7 it was 1.3 µM; in series [2], 1.25 µM.

As for `CN1CCN(c2ccc3c(c2)/C(=C/Nc2ccc(CN4CCCCC4)cc2)C(=O)NC3=O)CC1`, the IC50 in series [1] and in series [3] was over 50 µM throughout.

Take `O=C1NC(=O)c2ccc(-n3cccc3)cc2/C1=C/Nc1ccc(CN2CCCCC2)cc1`: the IC50 is 2.7 µM in the series on HCT-116; over 50 µM in series [1]; 2.1 µM in the series on MCF7; 0.14 µM in series [2]; over 50 µM in series [3].

As for `CN1CCN(c2ccc(N/C=C3\C(=O)NC(=O)c4ccc(-c5ccccc5)cc43)cc2)CC1`, the IC50 in series [1] is over 50 µM; in series [2], 0.39 µM; in series [3] it was over 50 µM.

For the compound `O=C1NC(=O)c2ccccc2/C1=C/Nc1ccc(CN2CCCCC2)cc1`, the values for the half-maximal inhibitory concentration (IC50) in series [1], in series [2] and in series [3] were 19.6 µM, 3.3 µM and over 27 µM, respectively.

In the case of `CN1CCN(c2ccc(N/C=C3\C(=O)NC(=O)c4ccc(-c5ccoc5)cc43)nn2)CC1`, the results for the 50% inhibitory concentration (IC50) with HCT-116 and in the series with MCF7 were 1.9 µM and 4.5 µM, respectively.

In turn, `CN1CC2CC1CN2c1ccc(N/C=C2\C(=O)NC(=O)c3ccc(I)cc32)cc1` (centres undefined) gave a solubility in series [4] of 18 µg/mL (≈ 36 µM). Moreover, the half-maximal inhibitory concentration (IC50) is 1.9 µM in the series on HCT-116; over 50 µM in series [1]; 2.6 µM in the series on MCF7; 0.32 µM in series [2]; over 50 µM in series [3].
